Several values for one entry are separate records, joined by “and”; a condition that tells them apart may be missing. Equal entries are not always repeated.

The nature of data set [1]: Pb in whole blood and saliva of rats after single acute oral doses of Pb-acetate. It is filed as in vivo, Fisher 344 rats. The text has this:
Different sample pretreatment procedures for the effective release of the Pb from its binding sites in the biological fluids have been previously reviewed. (Wang, J.: Stripping analysis of trace metals in human body fluids. J. Electroanal. Chem., 139: 225-232 (1982)). It was reported that 0.5 M HCl can effectively release Pb^2+ ion from blood samples. (Nagler, R. M., Baum, B. J., and Fox, P. C.: Effect of X irradiation on the function of rat salivary glands at 3 and 40 days. Rad. Res., 136: 392-396 (1993)). In our work saliva sample was diluted 5 times with acidic solution to a final concentration of 0.5 M HCl. The sample solution was then loaded in sample reservoir and was delivered by the integrated micro-pump. The sample solution flowed across a mercury (Hg)-film working electrode and exited through an outflow groove positioned directly across the Pt auxiliary electrode. Square wave anodic stripping voltametry (SWASV) was utilized for quantitation of Pb in the specimens. For Pb detection, a constant potential of −1.10 V was applied to the glassy carbon Hg-film electrode. When sample solution flowed over the electrode surface, Pb^2+ was reduced and accumulated. After a 3-min accumulation period, the potential of the Hg-film electrode was scanned from −1.10 V to −0.10 V. To eliminate the sample matrix effect for blood and saliva samples, after the accumulation period, a clean solution (0.5 M HCl) was pumped from another reservoir and replaced the sample matrix, then the stripping analysis was performed. After each measurement the Pb was stripped from the electrode surface and the sensor was then available for analysis of the next specimen.
In order to validate the capability of the micro-analytical detection system to quantify Pb in biological specimens, rat studies were conducted using single acute oral doses of Pb-acetate. Adult male Fisher 344 rats were obtained from Charles River Laboratory and ranged from ˜0.230 to 0.260 kg of body weight when used. Groups of rats (3-5 animals/dose) were administered an aqueous solution of Pb-acetate by oral gavage at doses of 0, 20, 50, 100, 200 and 500 mg/kg of body weight. At ˜24 hr post-dosing the rats were anesthetized with an ip injection of ketamine (87 mg/kg):xylazine (13 mg/kg). In addition, each rat was given an ip injection of the cholinergic agonist pilocarpine (1 mg/kg) to induce salivation. Saliva was then collected from each rat, using a glass capillary tube, for approximately 30-min (˜1-2 mL saliva) at which time the rats were exsanguinated by cardiac puncture. Whole blood and saliva specimens were weighed and stored frozen (−80° C.) until the Pb analysis was conducted.
The concentration of Pb in the specimens was determined by inductively coupled plasma/mass spectrometry (ICP-MS). […]

Data set [2] in a line: Rate of salivation during pilocarpine treatment. It is filed as in vivo, Fisher 344 rats. The settings on record: rat, pilocarpine 1 mg/kg ip. Here is the method: In order to validate the capability of the micro-analytical detection system to quantify Pb in biological specimens, rat studies were conducted using single acute oral doses of Pb-acetate. Adult male Fisher 344 rats were obtained from Charles River Laboratory and ranged from ˜0.230 to 0.260 kg of body weight when used. Groups of rats (3-5 animals/dose) were administered an aqueous solution of Pb-acetate by oral gavage at doses of 0, 20, 50, 100, 200 and 500 mg/kg of body weight. At ˜24 hr post-dosing the rats were anesthetized with an ip injection of ketamine (87 mg/kg):xylazine (13 mg/kg). […]
A PBPK model describing the disposition of Pb in the rat was modified to accommodate a saliva compartment. In general, the PBPK model structure and parameter estimations were as previously described, and the reader is referred to O'Flagherty for a detailed description of the model. […] For simplification the model assumes a constant rate of saliva secretion based on the measured rate of salivation during pilocarpine treatment (0.048 L/day), recognizing that this represents an over estimation of normal saliva flow. […] The fraction of cardiac output to the saliva gland and 1st order absorption rate for intraperitoneal (ip) Pb administration were determined by fitting the data of Mobarak and P'an. […]

Regarding `CC(=O)[O-].CC(=O)[O-].[Pb+2]` [Pb, Pb-acetate], the “blood Pb concentration” value in data set [1] (500 mg/kg oral dose group, 24 hr post-dosing, saliva response non-linear relative to blood) is given as “exceeding 0.7 mg/L”. For the same compound, the “Pb in rat saliva, Results of ICP/MS” value in data set [1] (rat saliva ~24 hr after oral gavage of Pb-acetate, ICP-MS after acid digestion, individual samples 1-3) was 99 ppb and 150 ppb and 116 ppb. Besides, the “Pb in rat saliva, Results of micro Analytical System” value in data set [1] (rat saliva ~24 hr after oral gavage of Pb-acetate, SWASV on Hg-film electrode, individual samples 1-3) is 80 ppb and 108 ppb and 111 ppb. Moreover, the “saliva Pb as percentage of the concentration in the blood” value in data set [1] (rat, oral Pb-acetate, ~24 hr post-dosing) is on record as 8.5%-9.
As to `CC[C@@H]1C(=O)OC[C@@H]1Cc1cncn1C` [pilocarpine], the “rate of saliva secretion” value in data set [2] is on record as 0.048 L/day.

Source of the values: patent US6699384B1, “Compact electrochemical sensor system and method for field testing for metals in saliva or other fluids” (priority 1999, dated 2004).
